According to the NIST ThermoML archive (doi:10.1016/j.jct.2011.06.015):
Numbers after ± are expanded uncertainties.

Assay: Boiling temperature at pressure P
Conditions: 101.33 kPa; Liquid; Ebulliometric method (Recirculating still)

Row | Boiling temperature at pressure P [°C] | SMILES
1 | 152.40 ± 0.05 | CC(C)c1ccccc1 [isopropylbenzene]
2 | 287.33 ± 0.05 | O=S1(=O)CCCC1 [sulfolane]
3 | 136.20 ± 0.05 | CCc1ccccc1 [ethylbenzene]

Row | SMILES | Boiling temperature at pressure P [°C]
4 | Cc1ccccc1 [toluene] | 110.80 ± 0.05
